Laboratory results as given in publication PMC5584945, “Evaluation of robenidine analog NCL195 as a novel broad-spectrum antibacterial agent” (PLoS ONE, 2017).
Read-outs that look alike come from different tables or passages of the source.

How the values were obtained:
A. baumannii = test: MIC alone and checkerboard with EDTA or polymyxin B; type: cell-based; conditions: for MIC: Acinetobacter baumannii
Description: (§1) MICs for NCL812 and its analogs (serial two-fold dilutions commencing at 128 μg/ml) were determined (in duplicate) in round bottom 96-well microtitre trays (Sarstedt 82.1582.001), using the broth micro-dilution method recommended by the Clinical and Laboratory Standards Institute (CLSI). […] MIC50, MIC90 and MIC range for NCL812, NCL195 and NCL219 were calculated against each S. pneumoniae, S. aureus or VRE isolate. To assess the potential activity of NCL195 against Gram-negative bacteria, MICs against Acinetobacter spp, E. coli, K. pneumoniae, P. aeruginosa, Proteus spp and Neisseria meningitidis were performed in the presence or absence of 0.08 mM-20 mM EDTA in a standard checkerboard assay.

E. coli = test: as above; type: cell-based; conditions: for MIC: Escherichia coli, read-out: MIC, agent alone
Description: as §1

K. pneumoniae = test: as above; type: cell-based; conditions: for MIC of NCL195 in combination with EDTA: with EDTA 10 mM; for MIC: Klebsiella pneumoniae, read-out: MIC, agent alone
Description: as §1

P. aeruginosa = test: as above; type: cell-based; conditions: for MIC: Pseudomonas aeruginosa, read-out: MIC, agent alone
Description: as §1

A. anitratus = test: MIC, broth micro-dilution; type: cell-based; conditions: Acinetobacter calcoaceticus; one A. anitratus isolate; absence of EDTA
Description: as §1

A. calcoaceticus = test: MIC, broth micro-dilution; type: cell-based; conditions: 8 A. calcoaceticus isolates; absence of EDTA
Description: as §1

[1] = system: A. baumannii, E. coli, K. pneumoniae and P. aeruginosa; test: MIC with sub-inhibitory EDTA or polymyxin B, Gram-negative panel; type: cell-based
Description: as §1

Neisseria meningitidis = test: Activity against Neisseria meningitidis; type: cell-based
Description: as §1

S. aureus ATCC 29213 = test: Macromolecular synthesis inhibition; type: cell-based, Staphylococcus aureus; conditions: 0.25 to 8-fold MIC; exponentially growing culture
Description: Morphological appearance and morphometric analysis of the cell membrane of S. pneumoniae D39 after exposure to either 1 μg/ml, 4 μg/ml or 16 μg/ml of NCL812 was determined using TEM, as described in S1 File (Supplementary Methods). For S. aureus ATCC 29213, macromolecular (DNA, RNA, protein, cell wall, and lipid) synthesis inhibition studies were performed using concentrations of NCL812 that were equivalent to 0, 0.25, 0.5, 1, 2, 4 or 8-fold the MIC value (4 μg/ml), as detailed in S1 File (Supplementary Methods).
Effect of NCL812 on S. aureus ATCC29213 macromolecular synthesis. […]
A 5% DMSO treated culture served as the “no drug” control for all experiments. […] After washing three times with 5 ml of cold 5% TCA, the filters were rinsed two times with 5 ml 100% ethanol, allowed to dry, and then counted using a Beckman LS3801 liquid scintillation counter.
To test the effect of NCL812 on cell wall synthesis, bacteria were transferred to M9 minimal medium and added to 1.5 ml eppendorf tubes (100 μl/tube) containing various concentrations of test compound or control antibiotics (5 μl) at 20X the final concentration in 100% DMSO as described above. […] After washing three times with 5 ml of 0.1% SDS, the filters were rinsed two times with 5 ml of deionized water, allowed to dry, and then counted using a Beckman LS3801 liquid scintillation counter. […]

mice = conditions: cited from earlier work

Structure (SMILES): Cc1ccc(/C=N/Nc2cc(N/N=C/c3ccc(C)cc3)nc(N)n2)cc1 [NCL195, 4,6-bis(2-((E)-4-methylbenzylidene)hydrazinyl)pyrimidin-2-amine]
- MIC of NCL195 in combination with EDTA (A. baumannii; A. baumannii ATCC 12457, with EDTA 0.25 mM): 4 µg/mL
- MIC of NCL195 in combination with polymyxin B (A. baumannii; A. baumannii ATCC 12457): 0.5 µg/mL
- MIC of NCL195 in combination with EDTA (A. baumannii; A. baumannii ATCC 19606, with EDTA 0.5 mM): 2 µg/mL
- MIC of NCL195 in combination with polymyxin B (A. baumannii; A. baumannii ATCC 19606): 0.5 µg/mL
- MIC (A. baumannii; ATCC12457, A. baumannii ATCC 12457, read-out: MIC, agent alone): > 128 µg/mL
- MIC (A. baumannii; ATCC19606, A. baumannii ATCC 19606, read-out: MIC, agent alone): > 128 µg/mL
- MIC (A. baumannii; A. baumannii isolates without strain name (one table line per isolate), read-out: MIC): > 128 µg/mL
- MIC of NCL195 in combination with EDTA (E. coli; E. coli ATCC 11229, with EDTA 0.625 mM): 8 µg/mL
- MIC of NCL195 in combination with polymyxin B (E. coli; E. coli ATCC 11229): 0.25 µg/mL
- MIC of NCL195 in combination with EDTA (E. coli; E. coli ATCC 25922, with EDTA 2.5 mM): 4 µg/mL
- MIC of NCL195 in combination with polymyxin B (E. coli; E. coli ATCC 25922): 0.25 µg/mL
- MIC (E. coli; ATCC11229, E. coli ATCC 11229): > 128 µg/mL
- MIC (E. coli; ATCC25922, E. coli ATCC 25922): > 128 µg/mL
- MIC of NCL195 in combination with EDTA (K. pneumoniae; K. pneumoniae ATCC 4352): 4 µg/mL
- MIC of NCL195 in combination with polymyxin B (K. pneumoniae; K. pneumoniae ATCC 4352): 0.5 µg/mL
- MIC of NCL195 in combination with EDTA (K. pneumoniae; K. pneumoniae ATCC 33495): 4 µg/mL
- MIC of NCL195 in combination with polymyxin B (K. pneumoniae; K. pneumoniae ATCC 33495): 0.25 µg/mL
- MIC (K. pneumoniae; ATCC4352, K. pneumoniae ATCC 4352): > 128 µg/mL
- MIC (K. pneumoniae; ATCC33495, K. pneumoniae ATCC 33495): > 128 µg/mL
- MIC of NCL195 in combination with EDTA (P. aeruginosa; P. aeruginosa ATCC 27853, with EDTA 5 mM): 2 µg/mL
- MIC of NCL195 in combination with polymyxin B (P. aeruginosa; P. aeruginosa ATCC 27853): 1 µg/mL
- MIC of NCL195 in combination with EDTA (P. aeruginosa; P. aeruginosa PA01, with EDTA […]): 0.25 µg/mL
- MIC of NCL195 in combination with polymyxin B (P. aeruginosa; P. aeruginosa PA01): 1 µg/mL
- MIC (P. aeruginosa; ATCC27853, P. aeruginosa ATCC 27853): > 128 µg/mL
- MIC (P. aeruginosa; P. aeruginosa PA01): > 128 µg/mL
- MIC (A. anitratus): 4 µg/mL
- MIC range (A. calcoaceticus): 4 to 32 µg/mL
- MIC ([1]; in the presence of sub-inhibitory concentrations of EDTA): 0.25 to 8 µg/mL
- MIC ([1]; in the presence of sub-inhibitory concentrations of polymyxin B): 0.25 to 1 µg/mL
- Activity against Neisseria meningitidis (Neisseria meningitidis): bactericidal

Structure (SMILES): Cl.N=C(NN=Cc1ccc(Cl)cc1)NN=Cc1ccc(Cl)cc1 [NCL812, 2,2'-bis[(4-chlorophenyl)methylene] carbonimidic dihydrazide hydrochloride]
- Effect on macromolecular synthesis pathways (S. aureus ATCC 29213): inhibited DNA (A), RNA (B), protein (C), cell wall (D), and lipid (E) pathways
- oral LD50 (mice): 150 mg/kg
